Measurements taken from the supplement of paper PMC4862054.

Columns and labels:
Conditions in all cases: incubation time: 72 h
BT-549 [1] = assay: normalised response (% of control), CellTiter-Glo; higher = more viable cells (100 = DMSO, 0 = benzethonium chloride kill control)
Procedure, shortened: (§1)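 Breast cancer cell lines in 20 µl suspension were added to 384-well plates containing compound at 5 concentrations, spaced in 10-fold steps across a 10,000-fold range chosen for each compound, and incubated for 72 h. CellTox Green fluorescence was read at 485/520 nm, followed by CellTiter-Glo luminescence after 10 min at room temperature. Signals on each plate were normalised so that 0.1 % DMSO equals 100 and a positive kill control equals 0. Every value in the table is the normalised signal at one concentration of the series.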

CAL-148 [2] = assay: as above
Procedure, shortened: as §1

HCC1143 [3] = assay: as above
Procedure, shortened: as §1

BT-474 [4] = assay: as above
Procedure, shortened: as §1

HCC1599 [5] = assay: as above
Procedure, shortened: as §1

MDA-MB-436 [6] = assay: as above
Procedure, shortened: as §1

MCF-10A = assay: as above
Procedure, shortened: as §1

MDA-MB-453 [7] = assay: as above
Procedure, shortened: as §1

CAL-85-1 [8] = assay: as above
Procedure, shortened: as §1

DU-4475 [9] = assay: as above
Procedure, shortened: as §1

MDA-MB-468 [10] = assay: as above
Procedure, shortened: as §1

Hs578T [11] = assay: as above
Procedure, shortened: as §1

SK-BR-3 [12] = assay: as above
Procedure, shortened: as §1

MFM-223 [13] = assay: as above
Procedure, shortened: as §1

CAL-120 [14] = assay: as above
Procedure, shortened: as §1

CAL-51 [15] = assay: as above
Procedure, shortened: as §1

HCC1937 [16] = assay: as above
Procedure, shortened: as §1

MDA-MB-231 [17] = assay: as above
Procedure, shortened: as §1

HDQ-P1 [18] = assay: as above
Procedure, shortened: as §1

BT-549 [19] = assay: normalised viability (% of control), CellTiter-Blue; higher = more viable cells (100 = DMSO, 0 = benzethonium chloride kill control)
Protocol: (§2)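 DSRT, CellTiter-Blue viability, 72 h incubation. Signal is normalised to DMSO and benzethonium chloride controls. Value is the normalised response at dose 1.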

CAL-148 [20] = assay: as above
Protocol: as §2

HCC1143 [21] = assay: as above
Protocol: as §2

BT-474 [22] = assay: as above
Protocol: as §2

HCC1599 [23] = assay: as above
Protocol: as §2

MDA-MB-436 [24] = assay: as above
Protocol: as §2

MDA-MB-453 [25] = assay: as above
Protocol: as §2

CAL-85-1 [26] = assay: as above
Protocol: as §2

DU-4475 [27] = assay: as above
Protocol: as §2

MDA-MB-468 [28] = assay: as above
Protocol: as §2

Hs578T [29] = assay: as above
Protocol: as §2

SK-BR-3 [30] = assay: as above
Protocol: as §2

MFM-223 [31] = assay: as above
Protocol: as §2

CAL-120 [32] = assay: as above
Protocol: as §2

CAL-51 [33] = assay: as above
Protocol: as §2

HCC1937 [34] = assay: as above
Protocol: as §2

MDA-MB-231 [35] = assay: as above
Protocol: as §2

HDQ-P1 [36] = assay: as above
Protocol: as §2

Row | SMILES | normalised response (BT-549 [1]) [%] | normalised response (CAL-148 [2]) [%] | normalised response (HCC1143 [3]) [%] | normalised response (BT-474 [4]) [%] | normalised response (HCC1599 [5]) [%] | normalised response (MDA-MB-436 [6]) [%] | normalised response (MCF-10A) [%] | normalised response (MDA-MB-453 [7]) [%] | normalised response (CAL-85-1 [8]) [%] | normalised response (DU-4475 [9]) [%] | normalised response (MDA-MB-468 [10]) [%] | normalised response (Hs578T [11]) [%] | normalised response (SK-BR-3 [12]) [%] | normalised response (MFM-223 [13]) [%] | normalised response (CAL-120 [14]) [%] | normalised response (CAL-51 [15]) [%] | normalised response (HCC1937 [16]) [%] | normalised response (MDA-MB-231 [17]) [%] | normalised response (HDQ-P1 [18]) [%] | normalised viability (BT-549 [19]) [%] | normalised viability (CAL-148 [20]) [%] | normalised viability (HCC1143 [21]) [%] | normalised viability (BT-474 [22]) [%] | normalised viability (HCC1599 [23]) [%] | normalised viability (MDA-MB-436 [24]) [%] | normalised viability (MDA-MB-453 [25]) [%] | normalised viability (CAL-85-1 [26]) [%] | normalised viability (DU-4475 [27]) [%] | normalised viability (MDA-MB-468 [28]) [%] | normalised viability (Hs578T [29]) [%] | normalised viability (SK-BR-3 [30]) [%] | normalised viability (MFM-223 [31]) [%] | normalised viability (CAL-120 [32]) [%] | normalised viability (CAL-51 [33]) [%] | normalised viability (HCC1937 [34]) [%] | normalised viability (MDA-MB-231 [35]) [%] | normalised viability (HDQ-P1 [36]) [%]
1 | COc1ccc(S(=O)(=O)Nc2cccnc2Nc2ccc(O)cc2)cc1 [ABT-751] (1 nM) | 109 | 97.6 | 96.1 | 98.9 | 95.8 | 93 | 91.5 | 95.2 | 94.6 | 103 | 98.4 | 101 | 84.4 | 93.9 | 95.8 | 108 | 96.5 | 104 | 96.8 | 110 | 96.9 | 95.5 | 100 | 90 | 85.8 | 90.5 | 88.4 | 96.5 | 102 | 105 | 87.2 | 92.1 | 84.7 | 109 | 90.3 | 95.8 | 114
2 | Cc1cc(Nc2nc(N[C@@H](C)c3ncc(F)cn3)ncc2Cl)[nH]n1 [AZD1480] (0.1 nM) | 104 | 95.5 | 96.7 | 98.7 | 78.9 | 104 | 102 | 101 | 102 | 97.2 | 94.8 | 96.8 | 98.7 | 94.9 | 100 | 117 | 102 | 98.3 | 104 | 109 | 112 | 98.1 | 114 | 97 | 114 | 102 | 91.2 | 115 | 111 | 116 | 105 | 92.3 | 93.4 | 118 | 122 | 93.5 | 124
3 | CNC(=O)c1ccccc1Sc1ccc2c(/C=C/c3ccccn3)n[nH]c2c1 [Axitinib] (1 nM) | 110 | 103 | 102 | 98.6 | 103 | 95.3 | 101 | 109 | 99.8 | 104 | 105 | 98.1 | 109 | 107 | 104 | 78.7 | 107 | 111 | 105 | 96.2 | 94.9 | 101 | 93.5 | 92.4 | 98 | 95.6 | 86.8 | 115 | 102 | 97.6 | 104 | 95.5 | 77.4 | 101 | 110 | 88.4 | 73.7
4 | CC(O)(CS(=O)(=O)c1ccc(F)cc1)C(=O)Nc1ccc(C#N)c(C(F)(F)F)c1 (stereo not given) [Bicalutamide] (1 nM) | 111 | 109 | 105 | 110 | 109 | 104 | 107 | 91.7 | 104 | 99 | 107 | 99 | 106 | 107 | 107 | 114 | 101 | 104 | 102 | 107 | 105 | 102 | 113 | 93.8 | 99.1 | 97.8 | 92.2 | 112 | 110 | 112 | 86.9 | 94.8 | 96 | 110 | 77 | 111 | 100
5 | CCNC(=O)CCC/C=C\C[C@@H]1[C@@H](/C=C/[C@@H](O)CCc2ccccc2)[C@H](O)C[C@@H]1O [Bimatoprost] (0.55 nM) | 103 | 98.3 | 92.6 | 95.8 | 88.5 | 98.5 | 91.1 | 108 | 96.6 | 102 | 99.3 | 93.3 | 85.8 | 94.3 | 95.8 | 90.8 | 99.9 | 101 | 92.7 | 103 | 96.5 | 99 | 110 | 115 | 111 | 102 | 94.7 | 111 | 109 | 113 | 117 | 94.9 | 91.6 | 120 | 103 | 120 | 119
6 | CCN(CC)CCCC(C)Nc1ccnc2cc(Cl)ccc12 (stereo not given) [Chloroquine] (0.099 nM) | – | – | – | – | – | – | – | – | – | – | – | – | – | – | – | – | – | – | – | 107 | 97.1 | 99.2 | 100 | 96.9 | 111 | 107 | 87.6 | 111 | 108 | 101 | 91.9 | 102 | 85.9 | 90 | 89.7 | 112 | 112
7 | CN(Cc1cnc2nc(N)nc(N)c2n1)c1ccc(C(=O)N[C@@H](CCC(=O)O)C(=O)O)cc1 [Methotrexate] (1 nM) | – | – | – | – | – | – | – | – | – | – | – | – | – | – | – | – | – | – | – | 92.2 | 110 | 95.6 | 101 | 93.6 | 109 | 101 | 95.9 | 114 | 93 | 130 | 88.7 | 99.9 | 90.5 | 106 | 84.6 | 93.5 | 114
8 | COc1c2occc2cc2ccc(=O)oc12 [Methoxsalen] (1 nM) | – | – | – | – | – | – | – | – | – | – | – | – | – | – | – | – | – | – | – | 97.6 | 112 | 101 | 79.9 | 104 | 116 | 103 | 92.3 | 96.2 | 109 | 103 | 104 | 93.1 | 107 | 100 | 93.8 | 105 | 106
9 | C=CCN(/C=C1/C(=O)O[C@H](COC)[C@@]2(C)C1=C(O)C(=O)C1=C2[C@H](OC(C)=O)C[C@]2(C)C(=O)CC[C@@H]12)CC=C [PX-866] (1 nM) | – | – | – | – | – | – | – | – | – | – | – | – | – | – | – | – | – | – | – | 105 | 114 | 99.8 | 102 | 104 | 94.8 | 101 | 97 | 118 | 96.6 | 98.6 | 96.3 | 87.4 | 97.7 | 112 | 83.9 | 97.6 | 107
10 | CC[C@H](CO)Nc1nc(NCc2ccccc2)c2ncn(C(C)C)c2n1 [Roscovitine] (1 nM) | – | – | – | – | – | – | – | – | – | – | – | – | – | – | – | – | – | – | – | 105 | 87.1 | 95.5 | 91 | 101 | 114 | 104 | 82.8 | 103 | 93.7 | 96.3 | 92.9 | 96.5 | 83.7 | 101 | 81.3 | 110 | 83.1
